Data taken from patent US5397781A, “Pyrimidine derivatives” (Mochida Pharmaceutical Company, Limited, priority 1992, dated 1995).

target: T1, ACAT (Rattus norvegicus, UniProt Q7TQM4); test: Inhibitory effect on microsomal ACAT activity in rat liver; format: biochemical; settings: rat liver microsomes; read-out: IC50 (50% inhibition of cholesterol esterification)
T1 construct: Liver microsomes as an enzyme sample of ACAT were prepared from overnight-fasted male rats; from tissue; host or cells: liver of overnight-fasted male rats, 6 weeks old; microsomes
T1 sequence (Q7TQM4 1-524): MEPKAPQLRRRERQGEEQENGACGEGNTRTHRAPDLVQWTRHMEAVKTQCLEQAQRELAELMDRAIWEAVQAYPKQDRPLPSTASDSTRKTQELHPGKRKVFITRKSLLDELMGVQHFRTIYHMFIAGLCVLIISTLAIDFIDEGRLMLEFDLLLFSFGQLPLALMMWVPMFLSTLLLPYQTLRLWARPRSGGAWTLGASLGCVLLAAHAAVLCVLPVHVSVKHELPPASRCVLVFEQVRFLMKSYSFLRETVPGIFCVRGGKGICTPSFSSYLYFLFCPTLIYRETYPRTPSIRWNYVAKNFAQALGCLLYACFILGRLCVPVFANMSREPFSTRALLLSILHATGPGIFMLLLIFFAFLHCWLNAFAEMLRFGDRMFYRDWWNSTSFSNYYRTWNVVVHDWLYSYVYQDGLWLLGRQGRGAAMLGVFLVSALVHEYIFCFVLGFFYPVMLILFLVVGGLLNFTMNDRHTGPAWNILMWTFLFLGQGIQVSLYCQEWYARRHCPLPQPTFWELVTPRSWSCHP

Structure (SMILES) | IC50 [nM]
CCCN(CC(=O)Nc1c(S)nc(C)nc1N(CC)CC)c1ccccc1 [Example 133, N-[4-(N,N-diethylamino)-6-mercapto-2-methylpyrimidin-5-yl]-2-(N-phenyl-N-propylamino)acetamide] | 260
CCCCN(CCCC)c1nc(C)nc(S)c1NC(=O)CCCN(CCC)c1ccccc1 [Example 146, N-[4-(N,N-dibutylamino)-6-mercapto2-methylpyrimidin-5-yl]-4-(N-phenyl-N-propylamino)butanamide] | 110
CCCN(CCCC(=O)Nc1c(S)nc(C)nc1N(CC)CC)c1ccc(OC)cc1 [Example 173, N-[4-(N,N-diethylamino)-6-mercapto-2-methylpyrimidin-5-yl]-4-[N-(4-methoxyphenyl)-N-propylamino]butanamide] | 170
CCCN(CCCC(=O)Nc1c(S)nc(C)nc1N(CC)CC)c1ccc(F)cc1F [Example 180, N-[4-(N,N-diethylamino)-6-mercapto-2-methylpyrimidin-5-yl]-4-[N-(2,4-difluorophenyl)-N-propylamino]butanamide] | 200
CCCCCCCN(CCCC(=O)Nc1c(S)nc(C)nc1N(CC)CC)Cc1ccccc1 [Example 182, 4-(N-benzyl-N-heptylamino)-N-[4-(N,N-diethylamino)-6-mercapto-2-methylpyrimidin-5-yl]butanamide] | 220
CCN(CC)c1nc(C)nc(S)c1NC(=O)CCCN1CCCc2ccccc21 [Example 183, N-[4-(N,N-diethylamino)-6-mercapto-2-methylpyrimidin-5-yl]-4-(tetrahydroquinolino)butanamide] | 280
CCCN(CCCCC(=O)Nc1c(S)nc(C)nc1N(CCC)c1ccccc1)c1ccccc1 [Example 185, N-[4-mercapto-2-methyl-6-(N-phenyl-N-propylamino)pyrimidin-5-yl]-5-(N-phenyl-N-propylamino)pentanamide] | 79
CCCN(CCCCC(=O)Nc1c(S)nc(C)nc1N(CCC)CCC)c1ccccc1 [Example 188, N-[4-(N,N-dipropylamino)-6-mercapto-2-methylpyrimidin-5-yl]-5-(N-phenyl-N-propylamino)pentanamide] | 35
CCCCN(CCCC)c1ncnc(OCC)c1NC(=O)CCCCN(CCC)c1ccccc1 [Example 197, N-[4-(N,N-dibutylamino)-6-ethoxypyrimidin-5-yl]-5-(N-phenyl-N-propylamino)pentanamide] | 8.8
CCCN(CCCCCC(=O)Nc1c(S)nc(C)nc1N(CCC)c1ccccc1)c1ccccc1 [Example 205, N-[4-mercapto-2-methyl-6-(N-phenyl-N-propylamino)pyrimidin-5-yl]-6-(N-phenyl-N-propylamino)hexanamide] | 280
CCCN(CC(=O)Nc1c(SC)nc(C)nc1N(CC)CC)Cc1ccccc1 [Example 210, 2-(N-benzyl-N-propylamino) N-[4-(N,N-diethylamino)-2-methyl-6-methylthiopyrimidin-5-yl]acetamide] | 470
CCCN(CCCC(=O)Nc1c(SC)nc(C)nc1N(CCC)c1ccccc1)c1ccccc1 [Example 218, N-[2-methyl-4-methylthio-6-(N-phenyl-N-propylamino)pyrimidin-5-yl]-4-(N-phenyl-N-propylamino)butanamide] | 430
CCN(CC)c1nc(C)nc(SC)c1NC(=O)CCCN(C)c1ccccc1 [Example 224, N-[4-(N,N-diethylamino)-2-methyl-6-methylthiopyrimidin-5-yl]-4-(N-methyl-N-phenylamino)butanamide] | 220
CCCCCCN(CCCC(=O)Nc1c(SC)nc(C)nc1N(CCCC)CCCC)c1ccccc1 [Example 227, N-[4-(N,N-dibutylamino)-2-methyl-6-methylthiopyrimidin-5-yl]-4-(N-hexyl-N-phenylamino)butanamide] | 110
CCN(CC)c1nc(C)nc(SC)c1NC(=O)CCCN(c1ccccc1)C1CCCCCC1 [Example 235, 4-(N-cycloheptyl-N-phenylamino)-N-[4-(N,N-diethylamino)-2-methyl-6-methylthiopyrimidin-5-yl]butanamide] | 26
CCCCc1ccc(N(CCC)CCCC(=O)Nc2c(SC)nc(C)nc2N(CC)CC)cc1 [Example 237, 4-[N-(4-butylphenyl)-N-propylamino]-N-[4-(N,N-diethylamino)-2-methyl-6-methylthiopyrimidin-5-yl]butanamide] | 83
CCCN(CCCC(=O)Nc1c(SC)nc(C)nc1N(CC)CC)c1ccc(F)cc1F [Example 241, N-[4-(N,N-diethylamino)-2-methyl-6-methylthiopyrimidin-5-yl]-4-[N-(2,4-difluorophenyl)-N-propylamino]butanamide] | 76
CCCN(CCCC(=O)Nc1c(SC)nc(C)nc1N(CC)CC)Cc1ccccc1 [Example 242, 4-(N-benzyl-N-propylamino)-N-[4-(N,N-diethylamino)-2-methyl-6-methylthiopyrimidin-5-yl]butanamide] | 220
CCCCCCCN(CCCC(=O)Nc1c(SC)nc(C)nc1N(CC)CC)Cc1ccccc1 [Example 243, 4-(N-benzyl-N-heptylamino)-N-[4-(N,N-diethylamino)-2-methyl-6-methylthiopyrimidin-5-yl]butanamide] | 95
CCN(CC)c1nc(C)nc(SC)c1NC(=O)CCCN1CCCc2ccccc21 [Example 244, N-[4-(N,N-diethylamino)-2-methyl-6-methylthiopyrimidin-5-yl]-4-(N-tetrahydroquinolino)butanamide] | 190
CCCN(CCCCC(=O)Nc1c(SC)nc(C)nc1N(CCC)CCC)c1ccccc1 [Example 246, N-[4-(N,N-dipropylamino)-2-methyl-6-methylthiopyrimidin-5-yl]-5-(N-phenyl-N-propylamino)pentanamide] | 14
CCCN(CCCCC(=O)Nc1c(SC)nc(C)nc1N(CC)Cc1ccccc1)c1ccccc1 [Example 248, N-[4-(N-benzyl-N-ethylamino)-2-methyl-6-methylthiopyrimidin-5-yl]-5-(N-phenyl-N-propylamino)pentanamide] | 32

Further lines, results first:

IC50 [nM] | Structure (SMILES)
80 | CCCN(CCCC(=O)Nc1c(S)nc(C)nc1N(CC)CC)c1ccccc1 [Example 145, N-[4-(N,N-diethylamino)-6-mercapto-2-methylpyrimidin-5-yl]-4-(N-phenyl-N-propylamino)butanamide]
38 | CCCCCCN(CCCC(=O)Nc1c(S)nc(C)nc1N(CCC)CCC)c1ccccc1 [Example 156, N-[4-(N,N-dipropylamino)-6-mercapto-2-methylpyrimidin-5-yl]-4-(N-hexyl-N-phenylamino)butanamide]
81 | CCCCCCN(CCCC(=O)Nc1c(OC)nc(C)nc1N(CC)CC)c1ccccc1 [Example 166, N-[4-(N,N-diethylamino)-6-methoxy-2-methylpyrimidin-5-yl]-4-(N-hexyl-N-phenylamino)butanamide]
43 | CCCCCCN(CCCC(=O)Nc1c(OC)nc(C)nc1N(CCC)CCC)c1ccccc1 [Example 167, N-[4-(N,N-dipropylamino)-6-methoxy-2-methylpyrimidin-5-yl]-4-(N-hexyl-N-phenylamino)butanamide]
87 | CCCCCCN(CCCC(=O)Nc1c(OC)nc(SC)nc1N(CC)CC)c1ccccc1 [Example 168, N-[4-(N,N-diethylamino)-6-methoxy-2-methylthiopyrimidin-5-yl]-4-(N-hexyl-N-phenylamino)butanamide]
47 | CCCN(CCCCC(=O)Nc1c(S)nc(C)nc1N(CC)CC)c1ccccc1 [Example 187, N-[4-(N,N-diethylamino)-6-mercapto-2-methylpyrimidin-5-yl]-5-(N-phenyl-N-propylamino)pentanamide]
47 | CCCCN(CCCC)c1nc(C)nc(OC)c1NC(=O)CCCCN(CCC)c1ccccc1 [Example 195, N-[4-(N,N-dibutylamino)-6-methoxy-2-methylpyrimidin-5-yl]-5-(N-phenyl-N-propylamino)pentanamide]
16 | CCCCCCN(CCCC(=O)Nc1c(SC)nc(C)nc1N(CCC)CCC)c1ccccc1 [Example 226, N-[4-(N,N-dipropylamino)-2-methyl-6-methylthiopyrimidin-5-yl]-4-(N-hexyl-N-phenylamino)butanamide]
25 | CCCCCCN(CCCC(=O)Nc1c(SC)nc(SC)nc1N(CC)CC)c1ccccc1 [Example 234, N-[4-(N,N-diethylamino)-2,6-bis(methylthio)pyrimidin-5-yl]-4-(N-hexyl-N-phenylamino)butanamide]
32 | CCCCCCCCCCN(CCCC(=O)Nc1c(SC)nc(C)nc1N(CC)CC)c1ccccc1 [Example 236, 4-(N-decyl-N-phenylamino)-N-[4-(N,N-diethylamino)-2-methyl-6-methylthiopyrimidin-5-yl]butanamide]
120 | CCCCCCN(CCCC(=O)Nc1c(SC)nc(C)nc1N(CC)CC)c1ccc(OC)cc1 [Example 239, N-[4-(N,N-diethylamino)-2-methyl-6-methylthiopyrimidin-5-yl]-4-[N-hexyl-N-(4-methoxyphenyl)amino]butanamide]
64 | CCCN(CCCCC(=O)Nc1c(SC)nc(C)nc1N(CC)CC)c1ccccc1 [Example 245, N-[4-(N,N-diethylamino)-2-methyl-6-methylthiopyrimidin-5-yl]-5-(N-phenyl-N-propylamino)pentanamide]
